Data from patent publication EP4768484A1, “HETEROCYCLIC FUSED RING COMPOUND, AND COMPOSITION AND USE THEREOF” (Shenzhen TargetRx, Inc., priority 2023, dated 2025).

Legend:
Format in all cases: cell-based
[1] = target: T1, Ba/F3 BCR-ABL1 T315I (Homo sapiens, UniProt P00519+P11274, T315I); experiment: Cell growth inhibitory activity assay (CellTiter-Glo), Ba/F3 BCR-ABL1 T315I cells; conditions: 72 h, CTG cell viability
T1 construct: BCR (N-terminal fusion partner of the oncoprotein); expressed in transfected cells; host or cells: Ba/F3 (lentiviral transduction, monoclonal line)
In short: (§1)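 Compound dilutions applied for 72 h (37 °C, 5% CO2) to overnight-plated Ba/F3 cells, parental or engineered to express WT/mutant BCR-ABL1. ATP-based CellTiter-Glo luminescence read, referenced to day-0 viability and 0.5% DMSO wells; IC50 fitted by four-parameter logistic curve.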

[2] = target: T2, Ba/F3 BCR-ABL1 T315M (Homo sapiens, UniProt P00519+P11274, T315M); experiment: Cell growth inhibitory activity assay (CellTiter-Glo), Ba/F3 BCR-ABL1 T315M cells; conditions: 72 h, CTG cell viability
T2 construct: BCR (N-terminal fusion partner of the oncoprotein); expressed in transfected cells; host or cells: Ba/F3 (lentiviral transduction, monoclonal line)
Procedure: (§2) In this assay, the Celltiter-Glo (CTG) kit provided by Promega was used, and it is a homogeneous cell viability assay method. The cell viability of cultured cells was measured by quantifying ATP. K562 cells were purchased from Nanjing Kebai, product number CBP60529; Ba/F3 parental cells were purchased from RIKEN BRC, product number RCB0805; other cells containing BCR-ABL1 WT, BCR-ABL1 T315I, BCR-ABL1 T315M, BCR-ABL1 Y253H/E255K, BCR-ABL1 E255V/T3151, BCR-ABL1 A424T, BCR-ABL1 A337V, BCR-ABL1 P465S, BCR-ABL1 V468F, and BCR-ABL1 I502L were all monoclonal engineered cell lines obtained by transducting Ba/F3 parental cells with the lentivirus plasmids containing WT or corresponding mutated BCR-ABL1.
(§3) The steps of cell viability assay are as follows: • a) Cells in logarithmic growth phase were collected. Cell suspension was prepared and the cells were counted. Concentration of the cells was calculated. • b) The cell suspension was diluted to the required concentration and then added to the middle wells of a 96-well plate, and PBS was added to the edge wells. The wells with no cells and only culture medium were used as blank controls. • c) In addition to the cell plate used for compound analysis, another 96-well plate was prepared as a T0 plate, and 3-6 blank wells and 3-6 cell wells were added. The next day, CTG was used to test the cell viability as the T0 viability value of the cells. • d) The cell plate was incubated at 37 °C in a 5% CO2 incubator overnight. • e) The next day, each concentration of a compound subjected to a gradient dilution was added, and the cell plate was incubated at 37 °C in a 5% CO2 incubator for 72 h. The wells with no compound and only 0.5% DMSO were used as positive controls for cell growth. • f) CTG reagent (CellTiter-Glo kit) was added according to the manufacturer's instructions to test the cell viability value. • g) The plate was read using Biotek cytation3.0 microplate reader and the data were exported. • h) IC50 was calculated using GraphPad Prism 7.0 software.
(§4) The IC50 (half-maximal inhibitory concentration) of the compound was obtained using the following nonlinear fitting formula: Y = Bottom + (Top−Bottom)/(1+10^(∧)((LogIC50−X)*HillSlope)) [formula] • X: Log value of the compound concentration • Y: Inhibition rate (% inhibition) • Top: Maximum response • Bottom: Baseline response • HillSlope: Slope of the curve
(§5) The formula for calculating cell inhibition rate (inhibition rate %) was: [formula]

[3] = target: T3, Ba/F3 BCR-ABL1 E255V/T315I (Homo sapiens, UniProt P00519+P11274, E255V/T315I); experiment: Cell growth inhibitory activity assay (CellTiter-Glo), Ba/F3 BCR-ABL1 E255V/T315I cells; conditions: 72 h, CTG cell viability
T3 construct: BCR (N-terminal fusion partner of the oncoprotein); expressed in transfected cells; host or cells: Ba/F3 (lentiviral transduction, monoclonal line)
Procedure: as §2, §3, §4, §5

[4] = target: T4, Ba/F3 BCR-ABL1 A337V (Homo sapiens, UniProt P00519+P11274, A337V); experiment: Cell growth inhibitory activity assay (CellTiter-Glo), Ba/F3 BCR-ABL1 A337V cells; conditions: 72 h, CTG cell viability
T4 construct: BCR (N-terminal fusion partner of the oncoprotein); expressed in transfected cells; host or cells: Ba/F3 (lentiviral transduction, monoclonal line)
Procedure: as §2, §3, §4, §5

[5] = target: T5, Ba/F3 BCR-ABL1 I502L (Homo sapiens, UniProt P00519+P11274, I502L); experiment: Cell growth inhibitory activity assay (CellTiter-Glo), Ba/F3 BCR-ABL1 I502L cells; conditions: 72 h, CTG cell viability
T5 construct: BCR (N-terminal fusion partner of the oncoprotein); expressed in transfected cells; host or cells: Ba/F3 (lentiviral transduction, monoclonal line)
Procedure: as §2, §3, §4, §5

[6] = target: T6, Ba/F3 BCR-ABL1 Y253H/E255K (Homo sapiens, UniProt P00519+P11274, E255K/Y253H); experiment: Cell growth inhibitory activity assay (CellTiter-Glo), Ba/F3 BCR-ABL1 Y253H/E255K cells; conditions: 72 h, CTG cell viability
T6 construct: BCR (N-terminal fusion partner of the oncoprotein); expressed in transfected cells; host or cells: Ba/F3 (lentiviral transduction, monoclonal line)
Procedure: as §2, §3, §4, §5

[7] = target: T7, Ba/F3 BCR-ABL1 WT (Homo sapiens, UniProt P00519+P11274); experiment: Cell growth inhibitory activity assay (CellTiter-Glo), Ba/F3 BCR-ABL1 WT cells; conditions: 72 h, CTG cell viability
T7 construct: BCR (N-terminal fusion partner of the oncoprotein); expressed in transfected cells; host or cells: Ba/F3 (lentiviral transduction, monoclonal line)
In short: as §1

[8] = target: T8, Ba/F3 BCR-ABL1 V468F (Homo sapiens, UniProt P00519+P11274, V468F); experiment: Cell growth inhibitory activity assay (CellTiter-Glo), Ba/F3 BCR-ABL1 V468F cells; conditions: 72 h, CTG cell viability
T8 construct: BCR (N-terminal fusion partner of the oncoprotein); expressed in transfected cells; host or cells: Ba/F3 (lentiviral transduction, monoclonal line)
Procedure: as §2, §3, §4, §5

[9] = target: T9, Ba/F3 BCR-ABL1 A424T (Homo sapiens, UniProt P00519+P11274, A424T); experiment: Cell growth inhibitory activity assay (CellTiter-Glo), Ba/F3 BCR-ABL1 A424T cells; conditions: 72 h, CTG cell viability
T9 construct: BCR (N-terminal fusion partner of the oncoprotein); expressed in transfected cells; host or cells: Ba/F3 (lentiviral transduction, monoclonal line)
Procedure: as §2, §3, §4, §5

[10] = test system: Ba/F3 parental cells; experiment: Cell growth inhibitory activity assay (CellTiter-Glo), Ba/F3 parental cells; conditions: Mus musculus, BaF3, 72 h, CTG cell viability, read-out: IC50 Ba/F3 BCR-ABL1 Parental
In short: as §1

[11] = test system: K562 cells; experiment: Cell growth inhibitory activity assay (CellTiter-Glo), K562 cells; conditions: Homo sapiens, 72 h, CTG cell viability
In short: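 K562 cells in logarithmic growth were counted, diluted and plated in 96-well plates, with medium-only blanks and a separate T0 plate read by CTG the following day. After overnight incubation, graded compound concentrations were added for 72 h, with 0.5% DMSO wells as growth controls. Luminescence was read on a Biotek cytation3.0, and IC50 came from nonlinear fitting in GraphPad Prism 7.0.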

[12] = target: T10, Ba/F3 BCR-ABL1 P465S (Homo sapiens, UniProt P00519+P11274, P465S); experiment: Cell growth inhibitory activity assay (CellTiter-Glo), Ba/F3 BCR-ABL1 P465S cells; conditions: 72 h, CTG cell viability
T10 construct: BCR (N-terminal fusion partner of the oncoprotein); expressed in transfected cells; host or cells: Ba/F3 (lentiviral transduction, monoclonal line)
Procedure: as §2, §3, §4, §5

Row | IC50 [11] [nM] | Compound | IC50 [1] [nM] | IC50 [2] [nM] | IC50 [3] [nM] | IC50 [4] [nM] | IC50 [5] [nM] | IC50 [6] [nM] | IC50 [7] [nM] | IC50 [8] [nM] | IC50 [9] [nM] | IC50 [10] [nM] | IC50 [12] [nM]
1 | ≤ 5 | CC(C)n1cc2c(n1)-c1cc(-c3cc(C(=O)Nc4ccc(OC(F)(F)Cl)cc4)cc4nc5n(c34)[C@H](C)COC5)cnc1C2 [T-48, (R)-N-(4-(chlorodifluoromethoxy)phenyl)-6-(2-isopropyl-2,4-dihydropyrazolo[3',4':3,4]cyclopenta[1,2-b]pyridin-7-yl)-4-methyl-3,4-dihydro-1H-benzo[4,5]imidazo[2,1-c][1,4]oxazine-8-carboxamide] | ≤ 5 | > 1000 | ≤ 5 | 5 to 50 | 5 to 50 | ≤ 5 | ≤ 5 | 5 to 50 | 5 to 50 | > 1000 | 50 to 1000
2 | ≤ 5 | C[C@@H]1COCc2nc3cc(C(=O)Nc4ccc(OC(F)(F)Cl)cc4)cc(-c4cnc5c(c4)-c4nn(-c6cncnc6)cc4C5)c3n21 [T-66, (R)-N-(4-(chlorodifluoromethoxy)phenyl)-4-methyl-6-(2-(pyrimidin-5-yl)-2,4-dihydropyrazolo[3',4':3,4]cyclopenta[1,2-b]pyridin-7-yl)-3,4-dihydro-1H-benzo[4,5]imidazo[2,1-c][1,4]oxazine-8-carboxamide] | 5 to 50 | > 1000 | 50 to 1000 | 50 to 1000 | 50 to 1000 | 50 to 1000 | ≤ 5 | 50 to 1000 | 5 to 50 | > 1000 | 50 to 1000
3 | ≤ 5 | C[C@@H]1COCc2nc3cc(C(=O)Nc4ccc(OC(F)(F)Cl)cc4)cc(-c4cnc5c(c4)-c4c(cnn4-c4nccc(C#N)n4)C5)c3n21 [T-69-A, (R)-N-(4-(chlorodifluoromethoxy)phenyl)-6-(1-(4-cyanopyrimidin-2-yl)-1,4-dihydropyrazolo[3',4':3,4]cyclopenta[1,2-b]pyridin-7-yl)-4-methyl-3,4-dihydro-1H-benzo[4,5]imidazo[2,1-c][1,4]oxazine-8-carboxamide] | 5 to 50 | 50 to 1000 | 5 to 50 | 50 to 1000 | 50 to 1000 | 5 to 50 | ≤ 5 | > 1000 | 50 to 1000 | > 1000 | 50 to 1000
4 | ≤ 5 | C[C@@H]1COCc2nc3cc(C(=O)Nc4ccc(OC(F)(F)Cl)cc4)cc(-c4cnc5c(c4)C(=O)N(C4CC4)C5)c3n21 [T-25, (R)-N-(4-(chlorodifluoromethoxy)phenyl)-6-(6-cyclopropyl-5-oxo-6,7-dihydro-5H-pyrrolo[3,4-b]pyridin-3-yl)-4-methyl-3,4-dihydro-1H-benzo[4,5]imidazo[2,1-c][1,4]oxazine-8-carboxamide] | 5 to 50 | > 1000 | 5 to 50 |  |  | 5 to 50 | ≤ 5 |  | 5 to 50 | > 1000 | 
